This assay has as its system BDF1 mice, L1210 6-MP/6-TG resistant leukemia ip, survival T/C. The assay can be described thus: NCI In Vivo Anticancer Drug Screen. Data for tumor model L1210 Leukemia resistant to 6-MP and 6-Thioguanine; NSC 755, NSC 752 (intraperitoneal) in B6D2F1 (BDF1) mice. The settings on record: endpoint: mean survival time, higher = longer survival. The method, then: The antitumor activity of compounds was measured in mice bearing transplantable tumors. Survival or tumor size were measured and the results are expressed as the measurement made in the treated group (T) divided by the measurement made in the vehicle treated control group (C). The tumor model used in this assay is L1210 Leukemia resistant to 6-MP and 6-Thioguanine; NSC 755, NSC 752 (intraperitoneal) in B6D2F1 (BDF1) mice

The structures appear in SMILES notation. Where “and” joins values, the source holds several entries; their conditions need not be identical. Equal values may be shown once. Toxic doses and inconclusive results are not listed.

Turning to `O[C@H](CN1CC1)[C@@H](O)CN1CC1`, the T/C is 253 % of control (dose: 0.25 mg/kg/injection, schedule: Q01DX Z (ip), vehicle: saline); 91 % of control (dose: 1.0 mg/kg/injection, schedule: Q01DX Z (ip), vehicle: saline); 156 % of control (dose: 90.0 micrograms/kg/injection, schedule: Q01DX Z (ip), vehicle: saline); 121 % of control (dose: 180.0 micrograms/kg/injection, schedule: Q01DX Z (ip), vehicle: saline); 120 % of control (dose: 370.0 micrograms/kg/injection, schedule: Q01DX Z (ip), vehicle: saline).

`O=C(Nc1ccc(C2=NCCN2)cc1)c1ccc(C(=O)Nc2ccc(C3=NCCN3)cc2)c(Cl)c1`: the T/C runs as follows: (dose: 1.7 mg/kg/injection, schedule: Q01DX015 (ip), vehicle: carboxymethylcellulose (CMC)) 110 % of control; (dose: 2.6 mg/kg/injection, schedule: Q01DX015 (ip), vehicle: carboxymethylcellulose (CMC)) 107 % of control; (dose: 3.8 mg/kg/injection, schedule: Q01DX015 (ip), vehicle: carboxymethylcellulose (CMC)) 97 % of control; (dose: 4.4 mg/kg/injection, schedule: Q01DX015 (ip), vehicle: carboxymethylcellulose (CMC)) 121 % of control; (dose: 5.3 mg/kg/injection, schedule: Q01DX015 (ip), vehicle: carboxymethylcellulose (CMC)) 89 % of control; (dose: 6.5 mg/kg/injection, schedule: Q01DX015 (ip), vehicle: carboxymethylcellulose (CMC)) 253 % of control. Moreover, the T/C is 108 % of control (dose: 7.0 mg/kg/injection, schedule: Q01DX015 (ip), vehicle: carboxymethylcellulose (CMC)); 122 % of control (dose: 8.0 mg/kg/injection, schedule: Q01DX015 (ip), vehicle: carboxymethylcellulose (CMC)); 157 % of control (dose: 8.7 mg/kg/injection, schedule: Q01DX015 (ip), vehicle: carboxymethylcellulose (CMC)); 90 % of control (dose: 12.0 mg/kg/injection, schedule: Q01DX015 (ip), vehicle: carboxymethylcellulose (CMC)); 191 % of control (dose: 13.0 mg/kg/injection, schedule: Q02DX010 (ip), vehicle: carboxymethylcellulose (CMC)); 170 % of control (dose: 15.0 mg/kg/injection, schedule: Q01DX010 (ip), vehicle: carboxymethylcellulose (CMC)). Besides, the T/C by setting is: (dose: 15.0 mg/kg/injection, schedule: Q01DX015 (ip), vehicle: carboxymethylcellulose (CMC)) 168 % of control; (dose: 18.0 mg/kg/injection, schedule: Q01DX015 (ip), vehicle: carboxymethylcellulose (CMC)) 108 % of control; (dose: 20.0 mg/kg/injection, schedule: Q01DX010 (ip), vehicle: carboxymethylcellulose (CMC)) 181 % of control; (dose: 20.0 mg/kg/injection, schedule: Q01DX015 (ip), vehicle: carboxymethylcellulose (CMC)) 166 % of control and 187 % of control; (dose: 22.5 mg/kg/injection, schedule: Q01DX015 (ip), vehicle: carboxymethylcellulose (CMC)) 154 % of control; (dose: 26.0 mg/kg/injection, schedule: Q01DX015 (ip), vehicle: carboxymethylcellulose (CMC)) 214 % of control. In addition, the T/C is 90 % of control (dose: 27.0 mg/kg/injection, schedule: Q01DX015 (ip), vehicle: carboxymethylcellulose (CMC)); 223 % of control (dose: 30.0 mg/kg/injection, schedule: Q02DX010 (ip), vehicle: carboxymethylcellulose (CMC)); 188 % of control (dose: 45.0 mg/kg/injection, schedule: Q02DX010 (ip), vehicle: carboxymethylcellulose (CMC)).

As to `c1nc(Sc2ncnc3nc[nH]c23)c2[nH]cnc2n1`, the T/C is 100 % of control (dose: 37.0 mg/kg/injection, schedule: Q01DX009 (ip), vehicle: other); 107 % of control (dose: 75.0 mg/kg/injection, schedule: Q01DX009 (ip), vehicle: other); 95 % of control (dose: 150.0 mg/kg/injection, schedule: Q01DX009 (ip), vehicle: other); 91 % of control (dose: 300.0 mg/kg/injection, schedule: Q01DX009 (ip), vehicle: other).

`Nc1ncnc2c1ncn2C(C=O)OC(C=O)CO` (centres undefined): the T/C by setting is: (dose: 4.0 mg/kg/injection, schedule: Q01DX Z (ip), vehicle: carboxymethylcellulose (CMC)) 97 % of control; (dose: 6.0 mg/kg/injection, schedule: Q01DX Z (ip), vehicle: carboxymethylcellulose (CMC)) 102 % of control; (dose: 8.0 mg/kg/injection, schedule: Q01DX Z (ip), vehicle: carboxymethylcellulose (CMC)) 106 % of control; (dose: 12.0 mg/kg/injection, schedule: Q01DX015 (ip), vehicle: saline) 170 % of control; (dose: 12.0 mg/kg/injection, schedule: Q01DX Z (ip), vehicle: saline) 124 % of control; (dose: 13.0 mg/kg/injection, schedule: Q01DX015 (ip), vehicle: saline) 171 % of control. Further, the T/C was 189 % of control (dose: 24.0 mg/kg/injection, schedule: Q01DX015 (ip), vehicle: saline); 111 % of control (dose: 48.0 mg/kg/injection, schedule: Q01DX015 (ip), vehicle: saline); 88 % of control (dose: 50.0 mg/kg/injection, schedule: Q01DX Z (ip), vehicle: saline).

For the origin of these results see PubChem BioAssay AID308 (DTP/NCI, 2004).
